From ChEMBL document CHEMBL3637782, “GSK Tres Cantos Follow-up TB Screening Data” (2016)

Test system: Mycobacterium tuberculosis variant bovis
Assay: GSK_TB: Effect of compound calculated as % inhibition at single shot or pIC50 ( pIC50 ATP assay M.bovis)
Assay type: functional, organism-based
Settings: BCG / Pasteur

With `O=C(NCCO)c1c(O)c2ncc(Cc3ccc(F)cc3C(F)(F)F)cc2[nH]c1=O` the IC50 was 5.01 µM.

With `O=C(Nc1nc2c(s1)CCCc1cccnc1-2)c1ccccc1C(F)(F)F` the IC50 was 2.51 µM.

In the case of `COc1ccc2nccc(NC(=O)C3CCN(CCc4ccc(Cl)cc4)CC3)c2n1`, the IC50 is reported as 5.01 µM.

`CNc1nc(SC)nnc1-c1cccc(Cl)c1Cl` was tested, and the IC50 was 12.6 µM.

`FC(F)(F)Oc1ccc(-c2cc3ccncc3cc2OC2CCNCC2)cc1` gave an IC50 of 3.16 µM.

In the case of `FC(F)(F)c1nnc2ccc(Sc3nnc(-c4ccco4)o3)nn12`, the IC50 is reported as 3.16 µM.

`N#Cc1ncn(-c2ccc3nnc(C(F)(F)F)n3n2)n1` gave an IC50 of 7.94 µM.

Compound `O=S(=O)(NCc1ccccc1)c1ccc(-c2cc3ccncc3cc2OC2CCNCC2)s1` has an IC50 of 2 µM.

`COC(=O)c1ccc(Oc2ccc(-c3csc(C)n3)cc2F)nn1` showed an IC50 of 20 µM.

Work on `NC(=O)c1ccc(CN(C2CC2)S(=O)(=O)c2ccccc2F)cc1` yielded an IC50 of 12.6 µM.

Work on `CCOc1cc2ccccc2cc1C(=O)NC` yielded an IC50 of 6.31 µM.

`COc1ccc(CN2CCN(C(=O)/C=C/c3csc(C)n3)CC2)cc1` gave an IC50 of 5.01 µM.

`NS(=O)(=O)c1ccc(Nc2cnc3ccccc3n2)cc1` showed an IC50 of 6.31 µM.

In the case of `O=C(Nc1nc(-c2ccccn2)cs1)N1CCC(Cc2ccc(F)cc2)CC1`, the IC50 is reported as 3.98 µM.

Work on `CCOCn1ccc(NS(=O)(=O)c2ccc(N)cc2)nc1=O` yielded an IC50 of 3.16 µM.

In the case of `COc1ccc(CCNC(=O)C2(n3cnnn3)CCCCC2)cc1`, the IC50 is reported as 3.98 µM.

In the case of `CCCCNCC1COc2ccc(OC)cc2C1=O` (stereo not given), the IC50 is reported as 6.31 µM.

`NC(=O)c1cc2ccc(CC(=O)c3cccs3)cc2s1` showed an IC50 of 15.8 µM.

In the case of `Cc1ccc2c(c1)c(=O)cc(C(F)(F)F)n2CCNC(=O)c1ccccn1`, the IC50 is reported as 6.31 µM.

Work on `N#Cc1cc(C(F)(F)F)c2nc(C(=O)NCc3cccs3)c(Cl)n2c1` yielded an IC50 of 6.31 µM.

Compound `COc1ccc(Nc2nc(N[C@@H]3CCNC3)nc3cc[nH]c(=O)c23)cc1NC(=O)c1ccccc1` has an IC50 of 5.01 µM.

In the case of `c1ccc(-c2ncc(-c3ccc(OCCCn4ccnc4)cc3)s2)cc1`, the IC50 is reported as 7.94 µM.

For `Clc1nnc(N2CCCC2)c2ccccc12`, the IC50 was 3.16 µM.

Work on `Cc1nc(Nc2cnn(Cc3ccccc3F)c2)c2nn(C)c(C)c2n1` yielded an IC50 of 2.51 µM.

With `N#Cc1cccc(-c2ccc(NC[C@H]3CC[C@]4(CC3)CN(c3cccnn3)C(=O)O4)nc2)c1` the IC50 was 25.1 µM.

For `Cc1ccc2oc(SCC(=O)Nc3nccs3)nc2n1`, the IC50 was 6.31 µM.

With `CC(C)c1noc(N2CCC([C@H](C)Oc3cnc(-c4ccc(S(C)(=O)=O)c(F)c4)cn3)CC2)n1` the IC50 was 6.31 µM.

`CNc1snc(C)c1C(=O)NCCOc1ccc(OC)cc1` was tested, and the IC50 was 3.16 µM.

Work on `CC(C)N(C(=O)CNc1ccccc1Nc1ccccc1)c1ccccc1` yielded an IC50 of 6.31 µM.

With `O=[N+]([O-])c1cnc(-c2nc3ccccc3[nH]2)s1` the IC50 was 3.98 µM.

Work on `O=C(NCc1ccoc1)N1CCN(Cc2ccc3c(c2)OCO3)CC1` yielded an IC50 of 1.26 µM.

`Fc1ccc(Cc2nnc(-c3ccnc(Nc4ccc(OCCN5CCOCC5)cc4)n3)[nH]2)cc1` gave an IC50 of 7.94 µM.

With `NCC(c1cccs1)S(=O)(=O)c1ccccc1` (stereo not given) the IC50 was 5.01 µM.

`Fc1cccc(Oc2cc(C3CCCNC3)nc(-c3ccncc3)n2)c1` (stereo not given) was tested, and the IC50 was 12.6 µM.

For `Cc1c(C(=O)NCCOc2ccccc2)[nH]c2c1C(=O)CCC2`, the IC50 was 7.94 µM.

For `Nc1ccccc1Nc1ccc(Cl)cc1`, the IC50 was 0.1 µM.

`CCCC/C=C/c1cc2ccncc2cc1OC1CCNCC1` showed an IC50 of 2.51 µM.

`O=C(O)CCc1nc2ccccc2oc1=O` was tested, and the IC50 was 7.94 µM.

For `Cn1cc(CCNC(=O)Nc2ccc(N3CCCCC3)nc2)cn1`, the IC50 was 20 µM.

Work on `CC1CC1c1ccc(CN2CCc3nc(Nc4ccccc4)sc3CC2)o1` (stereo not given) yielded an IC50 of 6.31 µM.

With `COc1ccc(-c2nnc3sc(Cc4csc(C)n4)nn23)cc1` the IC50 was 5.01 µM.

Compound `Nc1ccc(C(O)CNCCc2ccccc2)cc1O` (stereo not given) has an IC50 of 2 µM.

Compound `CCCCc1ccc(C(=O)Nc2nnc(S(=O)(=O)CCCC)s2)nc1` has an IC50 of 7.94 µM.

`CC(C)Oc1ccc(-c2nnc(-c3ccc4c(c3)CCNCC4)s2)cc1Cl` showed an IC50 of 2.51 µM.

In the case of `COc1ccc(Nc2ncccc2N)cc1`, the IC50 is reported as 0.794 µM.

In the case of `CN(Cc1ccc(Cl)cc1)C(=O)CCc1nc2ccccc2oc1=O`, the IC50 is reported as 3.98 µM.

`O=C(NCc1ccco1)N1CCN(Cc2ccc3c(c2)CCO3)CC1` was tested, and the IC50 was 2.51 µM.

`O=C(NCc1ccco1)N1CCN(Cc2ccc(Cl)s2)CC1` gave an IC50 of 1.26 µM.

`O=C(NCc1ccco1)N1CCN(Cc2cccs2)CC1` was tested, and the IC50 was 7.94 µM.

`Nc1ccc(S(=O)(=O)Nc2ccnn2-c2ccccc2)cc1` [SULFAPHENAZOLE] was tested, and the IC50 was 10 µM.
